Results as given in US9403785B2, “Process for preparing amorphous cabazitaxel” (SHILPA MEDICARE LIMITED, priority 2012, dated 2016).

How the values were obtained:
[1] = Storage stability of solid form (morphology and physicochemical characteristics); conditions: solid material obtained after solvent recovery
Description: The merit of the process according to the present invention resides in that—product obtained after recovery is obtained in non-solvated amorphous form of Cabazitaxel. Said material was found devoid of any crystal lattice and adequately stable to handle and store for longer time (at least up to more than 6 months) without any significant or measurable change in its morphology and physicochemical characteristics.

[2] = cited from earlier work
[3] = compared with acetone solvate form (Form A); cited from earlier work

Compound: CO[C@H]1C(=O)[C@@]2(C)C([C@H](OC(=O)c3ccccc3)[C@]3(O)C[C@H](OC(=O)[C@H](O)[C@H](NC(=O)OC(C)(C)C)c4ccccc4)C(C)=C1C3(C)C)[C@]1(OC(C)=O)CO[C@@H]1C[C@@H]2OC (stereo in doubt) [(2α,5β,7β,10β,13α)-4-acetoxy-13-({(2R,3S)-3[(tert-butoxy-carbonyl)amino]-2-hydroxy-3-phenylpropanoyl}oxy)-1-hydroxy-7,10-dimethoxy-9-oxo-5,20-epoxytax-11-en-2-yl benzoate]
- time handled and stored without any significant or measurable change in morphology and physicochemical characteristics [1]: more than 6 months

Compound: CO[C@H]1C(=O)[C@@]2(C)C([C@H](OC(=O)c3ccccc3)[C@]3(O)C[C@H](OC(=O)[C@H](O)[C@H](NC(=O)OC(C)(C)C)c4ccccc4)C(C)=C1C3(C)C)[C@]1(OC(C)=O)CO[C@@H]1C[C@@H]2OC (stereo partly drawn) [Cabazitaxel, (2α,5β,7β,10β,13α)-4-acetoxy-13-({(2R,3S)-3[(tert-butoxycarbonyl)amino]-2-hydroxy-3-phenylpropanoyl}oxy)-1-hydroxy-7,10-dimethoxy-9-oxo-5,20-epoxytax-11-en-2-yl benzoate]
- solubility in water [2]: practically insoluble in water

Compound: CO[C@H]1C(=O)[C@]2(C)[C@@H](OC)C[C@H]3OC[C@@]3(OC(C)=O)[C@H]2[C@H](OC(=O)c2ccccc2)[C@]2(O)C[C@H](OC(=O)[C@H](O)[C@@H](NC(=O)OC(C)(C)C)c3ccccc3)C(C)=C1C2(C)C [Form D anhydrous, 4-acetoxy-2α-benzoyloxy-5β,20-epoxy-1-hydroxy-7β,10β-dimethoxy-9-oxotax-11-en-13α-yl (2R,3S)-3-tert-butoxycarbonylamino-2-hydroxy-3-phenyl-propionate]
- stability of solid form [3]: highly stable, even more stable than acetone solvate form (Form A)
